Experimental data reported in US6495594B2, “Biologically active analogs of discodermolide” (Harbor Branch Oceanographic Institution, Inc., priority 2000, dated 2002).
Entries after “also recorded” stand apart in the source; their conditions may differ.

How the values were obtained:
[1] = test system: A549 human adenocarcinoma tumor cells; test: Microtubule bundling patterns in tumor cells by immunofluorescence; format: cell-based; design: key to Microtubule bundling in A549 cells: −: no effect; +/−: minimal or questionable effect; +: weak effect; ++: strong effect; +++: very strong effect equivalent to discodermolide; settings: for Microtubule bundling in A549 cells: subjective rating versus discodermolide
Experimental: Discodermolide and discodermolide analogs were evaluated as to their effects on the morphology of the microtubule network of cells using mouse anti-alpha-tubulin monoclonal antibody.
On day one, 7×10^4 adherent A549 human adenocarcinoma tumor cells were cultured in TCM overnight at 37° C. in 5% CO2 on 22 mm^2 cover slips in 6-well microtiter plates. On day two, TCM was removed and replaced with 10-1000 nM discodermolide or analog in TCM or TCM without drug (control) and incubated overnight at 37° C. in 5% CO2. On day three, TCM was removed and cells attached to cover slips were fixed with a 3.7% formaldehyde solution in Dulbecco's PBS for 10 minutes at room temperature. Cells were permeabilized with a 2% Triton X-100 solution, 2 mL per well, for 5 minutes at room temperature and washed twice in Dulbecco's PBS prior to staining.
To each well containing cells attached to cover slips a 2 mL volume of mouse anti- alpha-tubulin monoclonal antibody (Cat# T-5168, Sigma Chemical Co., St. Louis, Mo.) diluted 1:1000 in Dulbecco's phosphate buffered saline (D-PBS) was added and the cells incubated at room temperature for 45 minutes. Cover slips were rinsed once with D-PBS. A 2 mL volume of goat-anti-mouse-IgG-FITC conjugated antibody (Cat# T-5262, Sigma Chemical Co., St. Louis, Mo.) diluted 1:1000 in D-PBS was added and the cells incubated at room temperature for 45 minutes. Cover slips were rinsed once in D-PBS and DNA was stained with 0.02 mg/mL propidium iodide together with 0.1 mg/mL of ribonuclease A (RNAse) A in D-PBS at 37° C. for 30 minutes. Cover slips were rinsed three times with sterile distilled water, air-dried and mounted on slides with SlowFade™ antifade solution (Molecular Probes, Eugene, Oreg.) and observed under the microscope using epifluorescence illumination for the presence of abnormal aster and microtubule bundle formations.

[2] = test system: P388 murine leukemia cell lines; test: In vitro proliferation of P388 cells (MTT); format: cell-based
Experimental: (§1) Discodermolide and discodermolide analogs were analyzed as to their effects on proliferation of A549 human adenocarcinoma and P388 murine leukemia cell lines. P388 cells were obtained from Dr. R. Camalier, National Cancer Institute, Bethesda, MD, and A549 cells were obtained from American Type Culture Collection, Rockville, MD. All cell lines were maintained in tissue culture medium (TCM; Roswell Park Memorial Institute RPMI 1640 supplemented with 100 U/mL penicillin, […], 60 […], 18 mM HEPES, 0.05 mg/mL gentamicin (Life Technologies, Gaithersburg, MD) and 10% fetal bovine serum) and cultured in plastic tissue culture flasks at 37° C. in humidified air containing 5% CO2. Stock cultures of P388 cells were subcultured 1:20 in fresh TCM every 2 to 3 days. Stock cultures of A549 cells were subcultured 1:10 every 3 to 4 days. To assess the antiproliferative effects of agents against the cells, 200 μL cultures (96-well tissue culture plates, Nunc, Denmark) were established at 1 ×10^5 cells/mL in TCM or TCM containing the test agent at 0.03-5.0 μg/mL. After 48-h exposures, P388 cells were enumerated using 3-[4,5-dimethylthiazol-2-yl]-2,5-diphenyltetrazolium bromide (MTT) as described in the literature (M. C. Alley, et al., Cancer Res. 48:589, 1988). A549 cells were enumerated in the same manner after 72 hours exposure. The results were expressed as percent inhibition compared to the negative (no drug) control. Positive drug controls of varying dilutions of 5-fluorouracil and adriamycin (Sigma Chemical Co., St Louis, MO) were included to monitor drug sensitivity of the cell line.
(§2) To quantitate the effects on cell proliferation and resulting IC50 values, 75 μL of warm growth media containing 5 mg/mL MTT is added to each well, cultures returned to the incubator, and left undisturbed for 3 hours. To spectrophotometrically quantitate formation of reduced formazan, plates are centrifuged (500×g, 10 minutes), culture fluids removed by aspiration, and 200 μL of acidified isopropanol (2 mL concentrated HCl /liter isopropanol) added per well. The absorbance of the resulting solutions is measured in a plate reader (TECAN Spectra SLT; TECAN U.S., Research Triangle Park, N.C.) at 570 nm and a 650 nm reference filter. The absorbance of test wells is divided by the absorbance of drug-free wells, and the concentration of agent that results in 50% of the absorbance of untreated cultures (IC50) is determined by linear regression of logit-transformed data (D. J. Finney, Statistical Method in Biological Assay, third ed., pp. 316-348, Charles Griffin Co., London, 1978). A linear relationship between tumor cell number and formazan production has been routinely observed over the range of cell densities observed in these experiments. The two standard drug controls (indicated above) are included in each assay as a check to monitor the drug sensitivity of each of the cell lines and IC50 values are determined for each drug-cell combination.

[3] = test system: A549 human adenocarcinoma; test: In vitro proliferation of A549 cells (MTT); format: cell-based
Experimental: as §1, §2

[4] = test system: purified bovine brain tubulin; test: Tubulin polymerization (optical density at 350 nm); format: biochemical; design: key to Purified tubulin polymerization by 10 μM / Purified tubulin polymerization at 10 μM: −: no effect; +/−: minimal or questionable effect; +: weak effect; ++: strong effect; +++: very strong effect equivalent to discodermolide; settings: 10 μM compound, 1 mg/mL tubulin; for Purified tubulin polymerization, temperature at which polymerization commences: temperature ramp 4 to 35° C.; for Purified tubulin polymerization at 10 μM: Table 12
Experimental: (§3) Compounds were tested at 10 μM with 1 mg/mL tubulin. The temperature was varied during the course of the experiment as follows: the experiment was begun with an initial temperature of 4° C. and held for 1 minute; the temperature was then increased to 35° C. at a rate of 1° C./minute, held at 35° C. for 1 minute, decreased to 4° C. at a rate of 2° C/minute, and finally held at 4° C. for 14 minutes. The curves shown are for compounds: discodermolide (I); 2-desmethyldiscodermolide (II); 19-desaminocarbonyldiscodermolide (III); 2-epidiscodermolide (IV); and 3-deoxy-2A-discodermolide (VI).
as §3, with “C./minute,” for “C/minute,”, “for” for “for compounds:”, “8,21,23-hexahydrodiscodermolide (XII)” for “2-desmethyldiscodermolide (II); 19-desaminocarbonyldiscodermolide (III); 2-epidiscodermolide (IV);”, “7-deoxy-8,21,23-hexahydrodiscodermolide (XIII).” for “3-deoxy-2A-discodermolide (VI).”
Polymerization of purified bovine brain tubulin (Cytoskeleton Inc., Denver, Colo.) was followed by changes in the optical density of tubulin solutions at 350 nm in a Hitachi U-3010 spectrophotometer equipped with a SPR-10 electronic thermostatted cell holder. Stock solutions of tubulin were diluted on ice in G-PEM buffer (1 mM GTP, 80 mM PIPES, 1 mM EGTA, 0.5 mM magnesium chloride; pH 6.8) to a final concentration of 1 mg/mL. The instrument was zeroed on this solution at 4° C. Discodermolide, and its analogs, were then added to the tubulin solution to a final concentration of 10 μM, quickly mixed, and the absorbance monitored over a period of 61 minutes. Within this time the temperature of the thermoelectric cell holder was held at 4° C. for 1 minute, increased to 35° C. at a rate of 1° C./minute, reduced back to 4° C. at a rate of 2° C./minute, and held at 4° C. for an additional 14 minutes.

[5] = test system: A549 human lung cells; test: Cell cycle progression by flow cytometry; format: cell-based
Experimental: Cell cycle studies were initiated in order to pinpoint a specific phase within the cell cycle in which discodermolide analogs were exerting their antiproliferative effect. A549 human lung cells were used as cell cycle targets to compare the effects of discodermolide and discodermolide analogs on perturbation of the cell cycle. Cell cycle analyses were performed as follows: A549 cells were incubated at 37° C. in 5% CO2 in air in the presence or absence of varying concentrations of discodermolide or discodermolide analogs for 24 hr. Cells were harvested, fixed in ethanol, washed, and stained with 0.02 mg/mL of propidium iodide (P.I.) together with 0.1 mg/mL of RNAse A. Stained preparations were analyzed on a Coulter EPICS ELITE flow cytometer with 488 nm excitation. Fluorescence measurements and resulting DNA histograms were collected from at least 10,000 P.I. stained cells at an emission wavelength of 690 nm. Raw histogram data was further analyzed using a cell cycle analysis program (Multicycle, Phoenix Flow Systems).

[6] = 48-h exposure, value in parentheses
[7] = 72 hours exposure, value in parentheses

C=CC=CC(C)C(OC(N)=O)C(C)C(O)C(C)CC(C)=CC(C)C(O)C(C)C=CC(O)CC1OC(=O)C(C)=CC1C (stereo not drawn) [3-Deoxy-2Δ-discodermolide (VI), 3-deoxy-2Δ-discodermolide]
Microtubule bundling in A549 cells ([1]; Table 12): +++
IC50 P388 cells ([2]; 48-h exposure): 0.02 µg/mL
IC50 [2, 6]: 33.6 nM
IC50 A549 cells ([3]; 72 hours exposure): 0.0125 µg/mL
IC50 [3, 7]: 21.7 nM
Purified tubulin polymerization, temperature at which polymerization commences [4]: 21 °C
Purified tubulin polymerization at 10 μM ([4]; subjective rating): +

C=CC=CC(C)C(OC(N)=O)C(C)C(O)C(C)CC(C)=CC(C)C(OC(C)=O)C(C)C=CC(O)CC1OC(=O)C(C)=CC1C (stereo not drawn) [3-Deoxy-2Δ-discodermolide-11-acetate (X), 3-deoxy-2Δ-discodermolide-11-acetate]
Microtubule bundling in A549 cells ([1]; Table 12): −
IC50 P388 cells ([2]; 48-h exposure): 0.32 µg/mL
IC50 [2, 6]: 519 nM
IC50 A549 cells ([3]; 72 hours exposure): 1.93 µg/mL
IC50 [3, 7]: 3130 nM
Purified tubulin polymerization at 10 μM ([4]; subjective rating): −

C=CC=CC(C)C(OC(N)=O)C(C)C(OC(C)=O)C(C)CC(C)=CC(C)C(OC(C)=O)C(C)C=CC(CC1OC(=O)C(C)=CC1C)OC(C)=O (stereo not drawn) [3-deoxy-2Δ-discodermolide-7,11,17-triacetate]
Microtubule bundling in A549 cells ([1]; Table 12): −
IC50 P388 cells ([2]; 48-h exposure): 4.96 µg/mL
IC50 [2, 6]: 7080 nM
IC50 A549 cells ([3]; 72 hours exposure): >5 µg/mL
IC50 [3, 7]: > 7130 nM
Purified tubulin polymerization at 10 μM ([4]; subjective rating): −

C=CC=CC(C)C(OC(N)=O)C(C)C(O)C(C)CC(C)=CC(C)C(O)C(C)C=CC(CC1OC(=O)C(C)=CC1C)OC(=O)CCC(=O)O (stereo not drawn) [3-deoxy-2Δ-discodermolide-7-succinate]
Microtubule bundling observation ([1]; 10 nM): indistinguishable from that of the untreated (control) cells
Microtubule bundling observation ([1]; 100 nM): indistinguishable from that of the untreated (control) cells
Microtubule bundling observation ([1]; 1000 nM): no bundling
Microtubule bundling in A549 cells ([1]; Table 12): −
IC50 P388 cells ([2]; 48-h exposure): >5 µg/mL
IC50 [2, 6]: > 7410 nM
Cell cycle effects ([5]; 10 nM): indistinguishable from the untreated (control) cells
Cell cycle effects (100 nM) ([5]; 100 nM, 24 hr, A549): indistinguishable from the untreated (control) cells
Cell cycle effects ([5]; 1000 nM): indistinguishable from the untreated (control) cells
Cell cycle effects ([5]; 3000 nM (highest concentration tested)): no cell cycle effects were noted; also recorded: slight induction of apoptosis and a general necrosis

C=CC=CC(C)C(OC(N)=O)C(C)C(OC(C)=O)C(C)CC(C)=CC(C)C(OC(C)=O)C(C)C=CC(O)CC1OC(=O)C(C)=CC1C (stereo not drawn) [3-deoxy-2Δ-discodermolide-11,17-diacetate]
Microtubule bundling in A549 cells ([1]; Table 12): −
IC50 P388 cells ([2]; 48-h exposure): >5 µg/mL
IC50 [2, 6]: > 7590 nM
IC50 A549 cells ([3]; 72 hours exposure): >5 µg/mL
IC50 [3, 7]: > 7590 nM
Purified tubulin polymerization at 10 μM ([4]; subjective rating): −

C=CC=CC(C)C(OC(N)=O)C(C)C(OC(C)=O)C(C)CC(C)=CC(C)C(O)C(C)C=CC(O)CC1OC(=O)C(C)=CC1C (stereo not drawn) [3-deoxy-2Δ-discodermolide-17-acetate]
Microtubule bundling in A549 cells ([1]; Table 12): −
IC50 P388 cells ([2]; 48-h exposure): >5 µg/mL
IC50 [2, 6]: > 8100 nM
IC50 A549 cells ([3]; 72 hours exposure): >5 µg/mL
IC50 [3, 7]: > 8100 nM
Purified tubulin polymerization at 10 μM ([4]; subjective rating): −

C=C/C=C\[C@H](C)[C@H](OC(N)=O)[C@@H](C)[C@H](O)[C@@H](C)C/C(C)=C\[C@H](C)[C@@H](O)[C@@H](C)/C=C\[C@@H](O)C[C@@H]1OC(=O)[C@H](C)[C@@H](O)[C@H]1C [Discodermolide (I), discodermolide]
Microtubule bundling in A549 cells ([1]; Table 11): +++
IC50 ([2]; Mus musculus, P388, 48-h exposure): 0.021 µg/mL
IC50 ([2]; Mus musculus, P388, 48-h exposure, value in parentheses): 35 nM
IC50 ([3]; Homo sapiens, A549, 72 hours exposure): 0.008 µg/mL
IC50 ([3]; Homo sapiens, A549, 72 hours exposure, value in parentheses): 13.5 nM
Purified tubulin polymerization, temperature at which polymerization commences [4]: 4 °C
Purified tubulin polymerization by 10 μM ([4]; subjective rating, Table 11): +++

Methyldiscodermolate [Methyldiscodermolate (V)]
Microtubule bundling in A549 cells ([1]; Table 11): +
IC50 P388 cells ([2]; 48-h exposure): 0.04 µg/mL
IC50 [2, 6]: 65.8 nM
IC50 A549 cells ([3]; 72 hours exposure): 0.045 µg/mL
IC50 [3, 7]: 74 nM
Purified tubulin polymerization, temperature at which polymerization commences [4]: (12° C.)
